Columns and labels:
[1] = prescribing information approved as of the priority date; cited from earlier work
[2] = post-marketing experience (post-approval use): adverse reactions in treated patients; format: in vivo; details: for adverse reactions associated with treatment, identified during post-approval use: reported voluntarily from a population of uncertain size, frequency and causality not established
Description: This invention comprises the discovery through post-marketing experience that treatment of patients with iloperidone has been associated with specific adverse reactions.
Without limiting this invention to a particular mechanism of action, the enumerated reactions may be hypersensitivity reactions. An aspect of this invention therefore comprises amending the contraindications section and/or the adverse events section of the iloperidone package insert, i.e., prescribing information, to read more or less as follows: • 4 CONTRAINDICATIONS • FANAPT is contraindicated in individuals with a known hypersensitivity reaction to the product. […] Because these reactions were reported voluntarily from a population of uncertain size, it is not possible to reliably estimate their frequency or establish a causal relationship to drug exposure.

## COc1cc(C(C)=O)ccc1OCCCN1CCC(c2noc3cc(F)ccc23)CC1 [iloperidone]
[1]
  known hypersensitivity reactions to the product (Contraindications section): pruritus and urticaria
[2]
  relative frequency among the enumerated reactions: rash was the most common followed by swollen tongue and swollen lip
  adverse reactions associated with treatment, identified during post-approval use: anaphylaxis, angioedema, throat tightness, oropharyngeal swelling, swelling of the face, lip, mouth, and tongue; urticaria, rash, and pruritus
[2]; listed as FANAPT
  adverse reactions associated with treatment, identified during post-approval use: retrograde ejaculation and hypersensitivity reactions (including anaphylaxis, angioedema, throat tightness, oropharyngeal swelling, swelling of the face, lip, mouth, and/or tongue; urticaria, rash, and pruritus)

Reference: patent publication US11723903B2, “Treatment of schizophrenia” (Vanda Pharmaceuticals Inc., priority 2015, dated 2023)
